Experimental data published in ChEMBL document CHEMBL1671627, “Increasing trends in antimicrobial resistance among clinically important anaerobes and Bacteroides fragilis isolates causing nosocomial infections: emerging resistance to carbapenems” (2008).
Converted amounts (≈) assume the structure as drawn.

Assays:
[1] = test system: Clostridium tertium; experiment: Antibacterial activity against beta-lactamase producing Clostridium tertium by CLSI agar dilution method; format: functional
[2] = test system: Prevotella melaninogenica; experiment: Antibacterial activity against Prevotella melaninogenica by CLSI agar dilution method; format: functional
[3] = test system: Bacteroides thetaiotaomicron; experiment: Antibacterial activity against beta-lactamase producing Bacteroides thetaiotaomicron assessed as susceptible isolates by CLSI agar dilution method; format: functional
[4] = test system: Prevotella bivia; experiment: Antibacterial activity against Prevotella bivia assessed as resistant isolates by CLSI agar dilution method; format: functional
[5] = test system: Phocaeicola vulgatus; experiment: Antibacterial activity against beta-lactamase producing Bacteroides vulgatus assessed as susceptible isolates by CLSI agar dilution method; format: functional
[6] = test system: Bacteroides caccae; experiment: Antibacterial activity against beta-lactamase producing Bacteroides caccae assessed as resistant isolates by CLSI agar dilution method; format: functional
[7] = test system: Clostridium septicum; experiment: Antibacterial activity against beta-lactamase producing Clostridium septicum by CLSI agar dilution method; format: functional
[8] = test system: Prevotella buccae; experiment: Antibacterial activity against Prevotella buccae assessed as susceptible isolates by CLSI agar dilution method; format: functional, Segatella buccae
[9] = test system: Prevotella buccae; experiment: Antibacterial activity against Prevotella buccae by CLSI agar dilution method; format: functional; conditions: Segatella buccae
[10] = test system: Fusobacterium nucleatum; experiment: Antibacterial activity against Fusobacterium nucleatum assessed as resistant isolates by CLSI agar dilution method; format: functional
[11] = test system: Clostridium perfringens; experiment: microbe, parasite or virus in culture; format: functional
[12] = test system: Peptoniphilus asaccharolyticus; experiment: Antibacterial activity against beta-lactamase producing Peptoniphilus asaccharolyticus assessed as susceptible isolates by CLSI agar dilution method; format: functional
[13] = test system: Veillonella parvula; experiment: Antibacterial activity against Veillonella parvula by CLSI agar dilution method; format: functional
[14] = test system: Clostridium paraputrificum; experiment: Antibacterial activity against beta-lactamase producing Clostridium paraputrificum by CLSI agar dilution method; format: functional
[15] = test system: Prevotella intermedia; experiment: Antibacterial activity against Prevotella intermedia by CLSI agar dilution method; format: functional
[16] = test system: Clostridium septicum; experiment: Antibacterial activity against beta-lactamase producing Clostridium septicum assessed as resistant isolates by CLSI agar dilution method; format: functional
[17] = test system: Bacteroides uniformis; experiment: Antibacterial activity against beta-lactamase producing Bacteroides uniformis assessed as susceptible isolates by CLSI agar dilution method; format: functional
[18] = test system: Fusobacterium necrophorum; experiment: Antibacterial activity against Fusobacterium necrophorum by CLSI agar dilution method; format: functional
[19] = test system: Phocaeicola vulgatus; experiment: Antibacterial activity against beta-lactamase producing Bacteroides vulgatus assessed as resistant isolates by CLSI agar dilution method; format: functional
[20] = test system: Prevotella bivia; experiment: Antibacterial activity against Prevotella bivia assessed as susceptible isolates by CLSI agar dilution method; format: functional
[21] = test system: Bacteroides uniformis; experiment: Antibacterial activity against beta-lactamase producing Bacteroides uniformis assessed as resistant isolates by CLSI agar dilution method; format: functional
[22] = test system: Prevotella melaninogenica; experiment: Antibacterial activity against Prevotella melaninogenica assessed as resistant isolates by CLSI agar dilution method; format: functional
[23] = test system: Bacteroides uniformis; experiment: Antibacterial activity against beta-lactamase producing Bacteroides uniformis by CLSI agar dilution method; format: functional
[24] = test system: Finegoldia magna; experiment: Antibacterial activity against beta-lactamase producing Finegoldia magna assessed as resistant isolates by CLSI agar dilution method; format: functional
[25] = test system: Phocaeicola vulgatus; experiment: Antibacterial activity against beta-lactamase producing Bacteroides vulgatus by CLSI agar dilution method; format: functional
[26] = test system: Peptostreptococcus anaerobius; experiment: Antibacterial activity against beta-lactamase producing Peptostreptococcus anaerobius assessed as susceptible isolates by CLSI agar dilution method; format: functional
[27] = test system: Parvimonas micra; experiment: Antibacterial activity against beta-lactamase producing Micromonas micros by CLSI agar dilution method; format: functional
[28] = test system: Finegoldia magna; experiment: Antibacterial activity against beta-lactamase producing Finegoldia magna by CLSI agar dilution method; format: functional
[29] = test system: Bacteroides fragilis; experiment: Antibacterial activity against Bacteroides fragilis assessed as resistant isolates by CLSI agar dilution method; format: functional
[30] = test system: Fusobacterium mortiferum; experiment: Antibacterial activity against Fusobacterium mortiferum by CLSI agar dilution method; format: functional
[31] = test system: Peptoniphilus asaccharolyticus; experiment: Antibacterial activity against beta-lactamase producing Peptoniphilus asaccharolyticus assessed as resistant isolates by CLSI agar dilution method; format: functional
[32] = test system: Clostridium paraputrificum; experiment: Antibacterial activity against beta-lactamase producing Clostridium paraputrificum assessed as susceptible isolates by CLSI agar dilution method; format: functional
[33] = test system: Bacteroides caccae; experiment: Antibacterial activity against beta-lactamase producing Bacteroides caccae assessed as susceptible isolates by CLSI agar dilution method; format: functional
[34] = test system: Clostridium tertium; experiment: Antibacterial activity against beta-lactamase producing Clostridium tertium assessed as susceptible isolates by CLSI agar dilution method; format: functional
[35] = test system: Bacteroides thetaiotaomicron; experiment: Antibacterial activity against beta-lactamase producing Bacteroides thetaiotaomicron assessed as resistant isolates by CLSI agar dilution method; format: functional
[36] = test system: Clostridium tertium; experiment: Antibacterial activity against beta-lactamase producing Clostridium tertium assessed as resistant isolates by CLSI agar dilution method; format: functional
[37] = test system: Bacteroides caccae; experiment: Antibacterial activity against beta-lactamase producing Bacteroides caccae by CLSI agar dilution method; format: functional
[38] = test system: Bacteroides thetaiotaomicron; experiment: Antibacterial activity against beta-lactamase producing Bacteroides thetaiotaomicron by CLSI agar dilution method; format: functional
[39] = test system: Peptostreptococcus anaerobius; experiment: Antibacterial activity against beta-lactamase producing Peptostreptococcus anaerobius assessed as resistant isolates by CLSI agar dilution method; format: functional
[40] = test system: Finegoldia magna; experiment: Antibacterial activity against beta-lactamase producing Finegoldia magna assessed as susceptible isolates by CLSI agar dilution method; format: functional
[41] = test system: Fusobacterium varium; experiment: Antibacterial activity against Fusobacterium varium assessed as resistant isolates by CLSI agar dilution method; format: functional
[42] = test system: Fusobacterium nucleatum; experiment: Antibacterial activity against Fusobacterium nucleatum assessed as susceptible isolates by CLSI agar dilution method; format: functional
[43] = test system: Clostridium paraputrificum; experiment: Antibacterial activity against beta-lactamase producing Clostridium paraputrificum assessed as resistant isolates by CLSI agar dilution method; format: functional
[44] = test system: Bacteroides fragilis; experiment: Antibacterial activity against Bacteroides fragilis assessed as susceptible isolates by CLSI agar dilution method; format: functional
[45] = test system: Prevotella buccae; experiment: Antibacterial activity against Prevotella buccae assessed as resistant isolates by CLSI agar dilution method; format: functional, Segatella buccae
[46] = test system: Peptostreptococcus anaerobius; experiment: Antibacterial activity against beta-lactamase producing Peptostreptococcus anaerobius by CLSI agar dilution method; format: functional
[47] = test system: Bacteroides fragilis; experiment: Antibacterial activity against Bacteroides fragilis by CLSI agar dilution method; format: functional
[48] = test system: Fusobacterium mortiferum; experiment: Antibacterial activity against Fusobacterium mortiferum assessed as resistant isolates by CLSI agar dilution method; format: functional
[49] = test system: Parvimonas micra; experiment: Antibacterial activity against beta-lactamase producing Micromonas micros assessed as resistant isolates by CLSI agar dilution method; format: functional
[50] = test system: Fusobacterium necrophorum; experiment: Antibacterial activity against Fusobacterium necrophorum assessed as resistant isolates by CLSI agar dilution method; format: functional
[51] = test system: Fusobacterium varium; experiment: Antibacterial activity against Fusobacterium varium assessed as susceptible isolates by CLSI agar dilution method; format: functional
[52] = test system: Clostridium septicum; experiment: Antibacterial activity against beta-lactamase producing Clostridium septicum assessed as susceptible isolates by CLSI agar dilution method; format: functional
[53] = test system: Prevotella bivia; experiment: Antibacterial activity against Prevotella bivia by CLSI agar dilution method; format: functional
[54] = test system: Fusobacterium nucleatum; experiment: Antibacterial activity against Fusobacterium nucleatum by CLSI agar dilution method; format: functional
[55] = test system: Fusobacterium necrophorum; experiment: Antibacterial activity against Fusobacterium necrophorum assessed as susceptible isolates by CLSI agar dilution method; format: functional
[56] = test system: Prevotella intermedia; experiment: Antibacterial activity against Prevotella intermedia assessed as resistant isolates by CLSI agar dilution method; format: functional
[57] = test system: Peptoniphilus asaccharolyticus; experiment: Antibacterial activity against beta-lactamase producing Peptoniphilus asaccharolyticus by CLSI agar dilution method; format: functional
[58] = test system: Prevotella intermedia; experiment: Antibacterial activity against Prevotella intermedia assessed as susceptible isolates by CLSI agar dilution method; format: functional
[59] = test system: Parvimonas micra; experiment: Antibacterial activity against beta-lactamase producing Micromonas micros assessed as susceptible isolates by CLSI agar dilution method; format: functional
[60] = test system: Prevotella melaninogenica; experiment: Antibacterial activity against Prevotella melaninogenica assessed as susceptible isolates by CLSI agar dilution method; format: functional
[61] = test system: Fusobacterium mortiferum; experiment: Antibacterial activity against Fusobacterium mortiferum assessed as susceptible isolates by CLSI agar dilution method; format: functional
[62] = test system: Fusobacterium varium; experiment: Antibacterial activity against Fusobacterium varium by CLSI agar dilution method; format: functional

SMILES: C[C@@H](O)[C@H]1C(=O)N2C(C(=O)O)=C(S[C@@H]3CN[C@H](C(=O)N(C)C)C3)[C@H](C)[C@H]12 [MEROPENEM]
- MIC [1]: 0.03 µg/mL (≈ 0.0782 µM)
- MIC50 [1]: 0.03 µg/mL (≈ 0.0782 µM)
- MIC90 [1]: 2 µg/mL (≈ 5.22 µM)
- MIC50 [2]: 0.12 µg/mL (≈ 0.313 µM)
- MIC90 [2]: 0.25 µg/mL (≈ 0.652 µM)
- Activity [3]: 97%
- Activity [4]: 0%
- Activity [5]: 96%
- Activity [6]: 4%
- MIC [7]: 0.03 µg/mL (≈ 0.0782 µM)
- MIC50 [7]: 0.03 µg/mL (≈ 0.0782 µM)
- MIC90 [7]: 2 µg/mL (≈ 5.22 µM)
- Activity [8]: 100%
- MIC50 [9]: 0.12 µg/mL (≈ 0.313 µM)
- MIC90 [9]: 0.25 µg/mL (≈ 0.652 µM)
- Activity [10]: 8%
- MIC [11]: 0.03 µg/mL (≈ 0.0782 µM)
- MIC50 [11]: 0.03 µg/mL (≈ 0.0782 µM)
- MIC90 [11]: 2 µg/mL (≈ 5.22 µM)
- Activity [12]: 100%
- MIC [13]: 0.06 µg/mL (≈ 0.156 µM)
- MIC [14]: 0.03 µg/mL (≈ 0.0782 µM)
- MIC50 [14]: 0.03 µg/mL (≈ 0.0782 µM)
- MIC90 [14]: 2 µg/mL (≈ 5.22 µM)
- MIC50 [15]: 0.12 µg/mL (≈ 0.313 µM)
- MIC90 [15]: 0.25 µg/mL (≈ 0.652 µM)
- Activity [16]: 0%
- Activity [17]: 96%
- MIC50 [18]: 0.06 µg/mL (≈ 0.156 µM)
- MIC90 [18]: 0.12 µg/mL (≈ 0.313 µM)
- Activity [19]: 4%
- Activity [20]: 100%
- Activity [21]: 4%
- Activity [22]: 0%
- MIC50 [23]: 0.5 µg/mL (≈ 1.3 µM)
- MIC90 [23]: 2 µg/mL (≈ 5.22 µM)
- Activity [24]: 0%
- MIC50 [25]: 0.5 µg/mL (≈ 1.3 µM)
- MIC90 [25]: 2 µg/mL (≈ 5.22 µM)
- Activity [26]: 100%
- MIC50 [27]: 0.06 µg/mL (≈ 0.156 µM)
- MIC90 [27]: 0.5 µg/mL (≈ 1.3 µM)
- MIC50 [28]: 0.06 µg/mL (≈ 0.156 µM)
- MIC90 [28]: 0.5 µg/mL (≈ 1.3 µM)
- Activity [29]: 5%
- MIC50 [30]: 0.06 µg/mL (≈ 0.156 µM)
- MIC90 [30]: 0.12 µg/mL (≈ 0.313 µM)
- Activity [31]: 0%
- Activity [32]: 100%
- Activity [33]: 96%
- Activity [34]: 100%
- Activity [35]: 0%
- Activity [36]: 0%
- MIC50 [37]: 0.5 µg/mL (≈ 1.3 µM)
- MIC90 [37]: 2 µg/mL (≈ 5.22 µM)
- MIC50 [38]: 0.25 µg/mL (≈ 0.652 µM)
- MIC90 [38]: 2 µg/mL (≈ 5.22 µM)
- Activity [39]: 0%
- Activity [40]: 100%
- Activity [41]: 8%
- Activity [42]: 92%
- Activity [43]: 0%
- Activity [44]: 88%
- Activity [45]: 0%
- MIC50 [46]: 0.06 µg/mL (≈ 0.156 µM)
- MIC90 [46]: 0.5 µg/mL (≈ 1.3 µM)
- MIC50 [47]: 0.28 µg/mL (≈ 0.73 µM)
- MIC90 [47]: 8 µg/mL (≈ 20.9 µM)
- Activity [48]: 8%
- Activity [49]: 0%
- Activity [50]: 8%
- Activity [51]: 92%
- Activity [52]: 100%
- MIC50 [53]: 0.12 µg/mL (≈ 0.313 µM)
- MIC90 [53]: 0.25 µg/mL (≈ 0.652 µM)
- MIC50 [54]: 0.06 µg/mL (≈ 0.156 µM)
- MIC90 [54]: 0.12 µg/mL (≈ 0.313 µM)
- Activity [55]: 92%
- Activity [56]: 0%
- MIC50 [57]: 0.06 µg/mL (≈ 0.156 µM)
- MIC90 [57]: 0.5 µg/mL (≈ 1.3 µM)
- Activity [58]: 100%
- Activity [59]: 100%
- Activity [60]: 100%
- Activity [61]: 92%
- MIC50 [62]: 0.06 µg/mL (≈ 0.156 µM)
- MIC90 [62]: 0.12 µg/mL (≈ 0.313 µM)
